From patent US20230286982A1, “PROTEASOME ENHANCERS AND USES THEREOF” (Board of Trustees of Michigan State University, priority 2020, published 2023)
Entries after “also recorded” stand apart in the source; their conditions may differ.

Key:
[1] = target: T1, human constitutive 20S proteasome impaired by α-synuclein oligomer mixture (Homo sapiens, UniProt P25787+P25789); test: IDP oligomer inhibition in fluorogenic peptide degradation assay (α-synuclein oligomers); type: biochemical; details: 1-10 μM, concentration dependent; CT-L substrate; 500 nM α-synuclein oligomers
T1 construct: purchased Boston Biochem, Inc. (Cambridge, Mass.)
Experimental: IDP oligomer Inhibition in fluorogenic peptide degradation assay. Assays were carried out in a 100 μL reaction volume. Different concentrations (1-10 μM) of test compounds were added to a black flat/clear bottom 96-well plate containing 1 nM of human constitutive 20S proteasome, in 50 mM Tris-HCl at pH 7.8 and allowed to incubate for 15 min at 37° C. Then, 1 μL of α-synuclein or amyloid beta oligomer mixture of was added to each sample to a final concentration of 500 nM for α-synuclein and 2.5 μM for amyloid beta. This mixture was then allowed to incubate again for 15 min at 37° C. Next, 10 μL of CT-L fluorogenic substrate was added to a final concentration of 20 μM. The enzymatic activity was measured at 37° C. on a SpectraMax M5e spectrometer by measuring the change in fluorescence unit per minute for 1 hour at 380-460 nm. The fluorescence units for the vehicle control were set at a 100%, and the ratio of drug-treated or just oligomer-treated samples to the vehicle control was used to calculate the relative enzymatic activity.

[2] = test system: A53T α-synuclein in transiently transfected HEK-293T cells; test: A53T α-synuclein digestion in HEK-293T cells; type: cell-based, human; details: for accumulation of A53T α-synuclein protein: 10 or 30 μM, 8 hours, with cycloheximide 100 μg/mL, concentration dependent
Experimental: Cell culture. Human embryonic kidney cells (HEK293T) were maintained in Dulbecco's modified Eagle's medium (DMEM) supplemented with 10% fetal bovine serum and 100 units/mL penicillin/streptomycin, at 37° C. with 5% CO2.
Transient transfection of A53T α-synuclein plasmid Into HEK-293T cells. Cells were grown according using the methods stated above to ˜50-70% confluency. At this point plasmid prepared with Xfect transfection agent (prepared following manufacturers protocol) was added to the HEK-293 cells and incubated for 4 hours. The media was then replaced with fresh culture media and the cells were returned to the incubator for 24 hours prior to treatment.
A53T α-synuclein digestion in HEK-293T cells. HEK-293T cells were transfected as described above and incubated for 24 hours. The cells were then treated with 100 μg/mL of cycloheximide, in combination with either vehicle (DMSO), fluspirilene (10 or 30 μM), N-acylated fluspirilene (10 or 30 μM), bortezomib (100 nM), or a combination thereof for 8 hours. The cells were then lysed using RIPA buffer and the manufacturers protocol. A BCA assay was performed to quantify protein levels and the lysates were normalized to desired concentrations prior to electrophoresis and western blot analysis, performed as described previously.

[3] = target: T2, human constitutive 20S proteasome (Homo sapiens, UniProt P25787+P25789); test: Fluorogenic peptide degradation 20S proteasome activity assay; type: biochemical; details: for 20S proteasome activity (in words): 0-80 μM; for AC200 (concentration achieving a doubling of 20S activity): combination of the three fluorogenic substrates (CT-L, T-L, Casp-L)
T2 construct: purchased Boston Biochem, Inc. (Cambridge, Mass.)
Experimental: Fluorogenic peptide degradation 20S proteasome activity assay. Activity assays were carried out in a 100 μL reaction volume. Different concentrations (1-80 μM) of test compounds were added to a black flat/clear bottom 96-well plate containing 1 nM of human constitutive 20S proteasome, in 50 mM Tris-HCl at pH 7.8, 100 mM NaCl and allowed to incubate for 15 min at 37° C. Fluorogenic substrates were then added and the enzymatic activity measured at 37° C. on a SpectraMax M5e spectrometer by measuring the change in fluorescence unit per minute for 1 hour at 380-460 nm. The fluorescence units for the vehicle control were set at a 100%, and the ratio of drug-treated sample set to that of vehicle control was used to calculate the fold change in enzymatic activity. The fluorogenic substrates used were one of the following: Suc-LLVY-AMC (CT-L activity, 20 μM), Z-LLE-AMC (Casp-L activity, 20 μM), Boc-LRR-AMC (T-L activity, 40 μM) or a combination of the three substrates each at 6.67 μM.

dopamine D2 receptor = dopamine D2 receptor (Homo sapiens, UniProt P14416); details: cited from earlier work
Chain of dopamine D2 receptor (P14416 whole entry, species assumed): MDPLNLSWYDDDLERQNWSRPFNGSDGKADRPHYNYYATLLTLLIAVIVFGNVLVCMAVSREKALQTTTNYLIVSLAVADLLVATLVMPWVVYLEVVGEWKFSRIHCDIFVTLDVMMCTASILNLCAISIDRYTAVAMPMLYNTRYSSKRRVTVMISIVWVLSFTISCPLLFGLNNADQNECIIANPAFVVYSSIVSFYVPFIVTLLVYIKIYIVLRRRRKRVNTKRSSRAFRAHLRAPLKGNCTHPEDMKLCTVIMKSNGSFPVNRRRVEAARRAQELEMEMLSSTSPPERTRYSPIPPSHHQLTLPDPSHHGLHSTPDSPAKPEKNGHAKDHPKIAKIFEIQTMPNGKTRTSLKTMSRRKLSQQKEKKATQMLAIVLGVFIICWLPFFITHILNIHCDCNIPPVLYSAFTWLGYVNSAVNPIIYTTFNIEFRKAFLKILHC

[4] = target: T3, human constitutive 20S proteasome impaired by amyloid beta oligomer mixture (Homo sapiens, UniProt P25787+P25789); test: IDP oligomer inhibition in fluorogenic peptide degradation assay (amyloid beta oligomers); type: biochemical; details: 1-10 μM, concentration dependent; CT-L substrate; 2.5 μM amyloid beta
T3 construct: purchased Boston Biochem, Inc. (Cambridge, Mass.)
Experimental: Amylold beta aggregate preparation. Synthetic amyloid beta was purchased from Eurogentec. To remove preexisting aggregates, synthetic amyloid beta peptide was dissolved in 100% hexafluoroisopropanol (HFIP) and incubated at 37° C. for 2 h. The HFIP was removed and the remaining peptide films were stored at −80° C. until use. Aggregates were prepared by resuspending amyloid beta films with DMSO (50 μL per 1 mg of peptide), followed by addition of ultrapure H2O (800 μL) and rapid addition of 2 M Tris-base (10 μL) at pH 7.6. The solution was then vortexed for 5 seconds and allowed to incubate at room temperature for 5 minutes. The Amyloid beta mixture was then diluted to the desired concentration and used immediately.
IDP oligomer Inhibition in fluorogenic peptide degradation assay. Assays were carried out in a 100 μL reaction volume. […] The enzymatic activity was measured at 37° C. on a SpectraMax M5e spectrometer by measuring the change in fluorescence unit per minute for 1 hour at 380-460 nm. The fluorescence units for the vehicle control were set at a 100%, and the ratio of drug-treated or just oligomer-treated samples to the vehicle control was used to calculate the relative enzymatic activity.

26S proteasome = 26S proteasome (Homo sapiens, UniProt P25787+P25789); test: Proteolysis of fluorogenic peptide substrates by purified 26S proteasome; type: biochemical; details: 0-80 μM
Experimental: FIG. 1A is a plot showing the rate of proteolysis of fluorogenic peptide substrates by purified 20S and 26S proteasome in the presence of a concentration response (0-80 μM) of fluspirilene. […] Error bars denote standard deviation.
The small molecule antipsychotic drug fluspirilene was identified as a promising new scaffold for the development of 20S activators due to its strong enhancement of 20S proteolysis. To assess fluspirilene's 20S proteasome activity, a series of assays were performed using each of three fluorogenic peptide substrates. These substrates were a chymotryptic-like (CT-L), a trypsin-like (T-L) and a caspase-like (Casp-L) substrate, one for each of the catalytic sites of the proteasome. It has been shown that the proteasome's active sites allosterically regulate each other in the presence of their individual substrates. Therefore, a combination of the three probes to represent the overall activity of a 20S activator more accurately in a system in which all catalytic sites are interacting.

[5] = target: T4, purified human 20S proteasome (Homo sapiens, UniProt P25787+P25789); test: In vitro purified α-synuclein oligomer degradation assay (western blot); type: biochemical; details: 24 hours incubation with 20S proteasome
T4 construct: purchased Boston Biochem, Inc. (Cambridge, Mass.)
Experimental: In vitro purified α-synuclein oligomer degradation assay (western blot). Digestion of α-synuclein oligomer mixture was carried out in a 50 μL reaction volume made of 50 mM Tris at pH 7.8; 0.33 μM α-synuclein oligomer mixture and 6.7 nM purified human 20S proteasome. Briefly, 20S proteasome was diluted to 7.58 nM in the reaction buffer. Fluspirilene or vehicle (1 μL of 50×stock or DMSO) were added to 44 μL of 7.58 nM 20S and incubated at 37° C. for 20 min. The substrate (5 μL of 3.3 μM synuclein oligomer mixture) was then added to the reaction mixture and incubated at 37° C. for 24 hours. The reactions were then quenched with concentrated SDS loading buffer. Samples were resolved on a 4-20% Tris-glycine SDS-PAGE and immunoblotted with mouse monoclonal anti α-synuclein IgG (1:2000) and anti-mouse HRP-linked IgG (1:2000). Blots were developed with ECL western reagent and imaged with an Azure Biosystems 3000 imager.

[6] = combination of the three catalytic site substrates

Compound	prevention of 20S impairment by α-syn oligomers [1]	accumulation of A53T α-synuclein protein [2]	activation of the catalytic sites of the 20S proteasome ([3]; CT-L, T-L and Casp-L substrates)	maximum fold enhancement ([3]; combination of probes, over vehicle control) [fold]	20S proteasome activity (in words) [3, 6]	AC200 (concentration achieving a doubling of 20S activity) [3] [µM]	dopamine D2 receptor antagonism (dopamine D2 receptor)	prevention of 20S impairment by amyloid beta oligomers [4]	enhancement of the proteolytic activity of the 26S proteasome (26S proteasome)	remaining α-syn oligomers relative to vehicle control [5]	effect on A53T α-synuclein when proteasome activity is blocked ([2]; in combination with bortezomib (100 nM))	maximum fold enhancement [3, 6] [%]	max fold increases, increase over vehicle ([3]; for each substrate/combination) [%]	activation of the CT-L site relative to fluspirilene ([3]; individual CT-L fluorescent peptide probe)	AC200 at the CT-L site ([3]; individual CT-L substrate (Suc-LLVY-AMC)) [µM]	AC200 at the Casp-L site ([3]; individual Casp-L substrate (Z-LLE-AMC)) [µM]	activation of the T-L site relative to fluspirilene ([3]; individual T-L fluorescent peptide probe)
O=C1NCN(c2ccccc2)C12CCN(CCCC(c1ccc(F)cc1)c1ccc(F)cc1)CC2 [Fluspirilene, fluspirilene, reference compound]	prevented 20S impairment	effectively reduced the accumulation	activates all three catalytic sites	~10	promising	2.2	potent	prevented 20S impairment	did not enhance	reduction in overall α-syn oligomers	–	–	–	–	–	–	–
O=C(CCC(c1ccc(F)cc1)c1ccc(F)cc1)N1CCC2(CC1)C(=O)NCN2c1ccccc1 [Compound 16]	prevented 20S impairment	effectively reduced the accumulation	–	–	promising; also recorded: excellent activity	1.9	–	prevented 20S impairment	–	reduction in overall α-syn oligomers	abrogated	> 2000	> 1500	reduced activation	4.7	4.1	better activation
O=C1NCN(c2ccccc2)C12CCN(CCC=C(c1ccc(F)cc1)c1ccc(F)cc1)CC2 [Compound 11]	–	–	–	–	lessened activity; also recorded: moderate activity	–	–	–	–	–	–	–	–	–	–	–	–
